Measurements reported in US5773569A (Affymax Technologies N.V., priority 1995, dated 1998).
pEC50: −log10 of the molar value. Residues, ends and D or L forms follow the SMILES beside them.

Columns and labels:
[1] = target: T1, murine receptor (FDC-P1/ER cells) (Mus musculus, UniProt P14753); test: cell-based; settings: IA = inactive
T1 sequence (P14753 25-507): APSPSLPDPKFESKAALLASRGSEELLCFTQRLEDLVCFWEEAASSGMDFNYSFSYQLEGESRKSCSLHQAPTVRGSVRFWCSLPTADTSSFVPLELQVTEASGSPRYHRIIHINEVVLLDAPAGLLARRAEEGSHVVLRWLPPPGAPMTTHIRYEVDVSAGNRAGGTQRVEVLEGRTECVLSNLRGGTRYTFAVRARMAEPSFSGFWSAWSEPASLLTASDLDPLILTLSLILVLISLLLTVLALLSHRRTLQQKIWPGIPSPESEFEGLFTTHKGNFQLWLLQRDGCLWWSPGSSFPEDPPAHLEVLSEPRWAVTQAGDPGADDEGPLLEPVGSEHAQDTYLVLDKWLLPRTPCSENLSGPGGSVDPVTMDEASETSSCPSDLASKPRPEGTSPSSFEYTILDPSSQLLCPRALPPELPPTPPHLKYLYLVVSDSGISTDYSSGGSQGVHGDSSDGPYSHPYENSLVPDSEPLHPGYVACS
Experimental: Sample Preparation: Peptides were resuspended in DMSO as a 1×10^-2 M stock solution and serially diluted in 10-fold increments to generate the following 100×solutions:
Two μl of each stock dilution was added to a cell well as described below in a total volume of 200 μl to generate final concentrations as follows:
(§1) Cells are harvested and resuspended in fresh medium without growth factor (erytiropoietin) for 24 hr. Cells are counted and resuspended at a concentration of 800,000 cells/ml. Approximately forty thousand cells (50μ) are added to each well of a 96 well microtiter plate. Peptide is added to each well in triplicate. A standard dose response determination is run with each series of peptides. After a forty-two hr incubation (≈2 doubling), each well is pulsed with 1 μCi/well Thymidine. Cells are incubated an additional six hr at which time cells are harvested and counted to assess thymidine incorporation as an indicator of cell proliferation.

[2] = target: T2, truncated human erythropoietin receptor cell line (Homo sapiens, UniProt P19235); test: cell-based
T2 sequence (P19235 25-468 limits assumed): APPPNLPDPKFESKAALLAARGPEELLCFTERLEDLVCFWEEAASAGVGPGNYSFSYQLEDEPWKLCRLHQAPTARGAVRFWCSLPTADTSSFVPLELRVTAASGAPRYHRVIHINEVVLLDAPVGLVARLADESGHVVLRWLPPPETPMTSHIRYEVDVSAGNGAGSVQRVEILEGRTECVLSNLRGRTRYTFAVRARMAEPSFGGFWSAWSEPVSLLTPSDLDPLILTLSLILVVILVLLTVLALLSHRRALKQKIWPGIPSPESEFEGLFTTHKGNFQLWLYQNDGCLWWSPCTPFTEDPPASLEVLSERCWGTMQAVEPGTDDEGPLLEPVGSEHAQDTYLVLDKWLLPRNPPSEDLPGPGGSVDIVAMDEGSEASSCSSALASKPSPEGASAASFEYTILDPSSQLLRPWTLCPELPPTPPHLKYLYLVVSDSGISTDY
Experimental: as §1

[3] = EPO-ED50 (μM)* murine receptor, Tables 20-21
[4] = EPO-ED50 (μM), Tables 17-19, amount for half maximal level of EPO dependent proliferation

| Compound | EC50 [1, 3] [µM] | pEC50 [2] | EC50 [1, 4] [µM] |
| --- | --- | --- | --- |
| CC[C@H](C)[C@H](NC(=O)[C@H](Cc1ccc(O)cc1)NC(=O)[C@H](CCC(N)=O)NC(=O)[C@H](C)NC(=O)[C@@H](NC(=O)[C@@H](N)[C@@H](C)O)[C@@H](C)CC)C(=O)N[C@H]1CSSC[C@@H](C(=O)N[C@@H](CCCNC(=N)N)C(=O)N2CCC[C@H]2C(=O)N[C@@H](CO)C(=O)N2CCC[C@H]2C(=O)N[C@@H](CCCCN)C(=O)N[C@@H](C)C(N)=O)NC(=O)[C@H](CCC(=O)O)NC(=O)[C@H](Cc2c[nH]c3ccccc23)NC(=O)[C@H]([C@@H](C)O)NC(=O)[C@H](CCC(=O)O)NC(=O)[C@@H]2CCCN2C(=O)CNC(=O)[C@H](CCSC)NC(=O)[C@H](Cc2ccc(O)cc2)NC1=O [AF11654] (HELM PEPTIDE1{T.I.A.Q.Y.I.C.Y.M.G.P.E.T.W.E.C.R.P.S.P.K.A.[am]}$PEPTIDE1,PEPTIDE1,7:R3-16:R3$$$V2.0) | 0.2 | 7.70 |  |
| CC(C)C[C@@H]1NC(=O)[C@@H]2CCCN2C(=O)CNC(=O)[C@H](Cc2ccccc2)NC(=O)[C@H](Cc2c[nH]cn2)NC(=O)[C@@H](NC(=O)[C@H](CO)NC(=O)[C@H](Cc2ccc(O)cc2)NC(=O)[C@@H](N)[C@@H](C)O)CSSC[C@@H](C(=O)N[C@@H](CCCCN)C(=O)N2CCC[C@H]2C(=O)N[C@@H](CCC(N)=O)C(N)=O)NC(=O)[C@H](C(C)C)NC(=O)[C@H](Cc2c[nH]c3ccccc23)NC(=O)[C@H]([C@@H](C)O)NC1=O [RWJ 61230] (HELM PEPTIDE1{T.Y.S.C.H.F.G.P.L.T.W.V.C.K.P.Q.[am]}$PEPTIDE1,PEPTIDE1,4:R3-13:R3$$$V2.0) |  |  | 2 |
| CC(C)C[C@@H]1NC(=O)[C@@H]2CCCN2C(=O)CNC(=O)[C@H](Cc2ccccc2)NC(=O)[C@H](Cc2c[nH]cn2)NC(=O)[C@@H](NC(=O)[C@H](CO)NC(=O)[C@@H](N)Cc2ccc(O)cc2)CSSC[C@@H](C(=O)N[C@@H](CCCCN)C(=O)N2CCC[C@H]2C(N)=O)NC(=O)[C@H](C(C)C)NC(=O)[C@H](Cc2c[nH]c3ccccc23)NC(=O)[C@H]([C@@H](C)O)NC1=O [RWJ 61232] (HELM PEPTIDE1{Y.S.C.H.F.G.P.L.T.W.V.C.K.P.[am]}$PEPTIDE1,PEPTIDE1,3:R3-12:R3$$$V2.0) |  |  | 20 |
| CC(C)C[C@@H]1NC(=O)[C@H](C)NC(=O)CNC(=O)[C@H](Cc2ccccc2)NC(=O)[C@H](Cc2c[nH]cn2)NC(=O)[C@@H](NC(=O)[C@H](CO)NC(=O)[C@H](Cc2ccc(O)cc2)NC(=O)[C@@H](NC(=O)CNC(=O)CN)[C@@H](C)O)CSSC[C@@H](C(=O)N[C@@H](CCCCN)C(=O)N2CCC[C@H]2C(=O)N[C@@H](CCC(N)=O)C(=O)NCC(=O)NCC(N)=O)NC(=O)[C@H](C(C)C)NC(=O)[C@H](Cc2c[nH]c3ccccc23)NC(=O)[C@H]([C@@H](C)O)NC1=O [RWJ 61277] (HELM PEPTIDE1{G.G.T.Y.S.C.H.F.G.A.L.T.W.V.C.K.P.Q.G.G.[am]}$PEPTIDE1,PEPTIDE1,6:R3-15:R3$$$V2.0) |  |  | 0.1 |
| CC(C)C[C@@H]1NC(=O)[C@@H]2CCCN2C(=O)CNC(=O)[C@H](Cc2ccccc2)NC(=O)[C@H](Cc2c[nH]cn2)NC(=O)[C@@H](NC(=O)[C@H](CO)NC(=O)[C@@H](N)Cc2ccc(O)cc2)CSSC[C@@H](C(=O)N[C@@H](CCCCN)C(N)=O)NC(=O)[C@H](C(C)C)NC(=O)[C@H](Cc2c[nH]c3ccccc23)NC(=O)[C@H]([C@@H](C)O)NC1=O [RWJ 61279] (HELM PEPTIDE1{Y.S.C.H.F.G.P.L.T.W.V.C.K.[am]}$PEPTIDE1,PEPTIDE1,3:R3-12:R3$$$V2.0) |  |  | 3 |
| CC(C)[C@@H]1NC(=O)[C@H](Cc2c[nH]c3ccccc23)NC(=O)[C@H]([C@@H](C)O)NC(=O)[C@H](C)NC(=O)[C@@H]2CCCN2C(=O)CNC(=O)[C@H](Cc2ccccc2)NC(=O)[C@H](Cc2c[nH]cn2)NC(=O)[C@@H](NC(=O)[C@H](CO)NC(=O)[C@H](Cc2ccc(O)cc2)NC(=O)[C@@H](NC(=O)CNC(=O)CN)[C@@H](C)O)CSSC[C@@H](C(=O)N[C@@H](CCCCN)C(=O)N2CCC[C@H]2C(=O)N[C@@H](CCC(N)=O)C(=O)NCC(=O)NCC(N)=O)NC1=O [RWJ 61314] (HELM PEPTIDE1{G.G.T.Y.S.C.H.F.G.P.A.T.W.V.C.K.P.Q.G.G.[am]}$PEPTIDE1,PEPTIDE1,6:R3-15:R3$$$V2.0) |  |  | 0.2 |
| CC(C)C[C@@H]1NC(=O)[C@@H]2CCCN2C(=O)CNC(=O)[C@H](Cc2ccccc2)NC(=O)[C@H](Cc2c[nH]cn2)NC(=O)[C@@H](NC(=O)[C@@H](N)Cc2ccc(O)cc2)CSSC[C@@H](C(N)=O)NC(=O)[C@H](C(C)C)NC(=O)[C@H](Cc2c[nH]c3ccccc23)NC(=O)[C@H]([C@@H](C)O)NC1=O [RWJ 61513] (HELM PEPTIDE1{Y.C.H.F.G.P.L.T.W.V.C.[am]}$PEPTIDE1,PEPTIDE1,2:R3-11:R3$$$V2.0) |  |  | 2 |
| CC(C)C[C@@H]1NC(=O)[C@@H]2CCCN2C(=O)CNC(=O)[C@H](Cc2ccccc2)NC(=O)[C@H](Cc2c[nH]cn2)NC(=O)[C@@H](NC(=O)[C@H](CO)NC(=O)[C@H](Cc2ccc(O)cc2)NC(=O)[C@@H](N)[C@@H](C)O)CSSC[C@@H](C(=O)N[C@@H](CCCCN)C(=O)N2CCC[C@H]2C(=O)N[C@@H](CCC(N)=O)C(=O)NCC(=O)NCC(N)=O)NC(=O)[C@H](C(C)C)NC(=O)[C@H](Cc2c[nH]c3ccccc23)NC(=O)[C@H]([C@@H](C)O)NC1=O [RWJ 61597] (HELM PEPTIDE1{T.Y.S.C.H.F.G.P.L.T.W.V.C.K.P.Q.G.G.[am]}$PEPTIDE1,PEPTIDE1,4:R3-13:R3$$$V2.0) |  |  | 2 |
| CSCC[C@@H]1NC(=O)[C@H](Cc2c[nH]cn2)NC(=O)[C@@H](NC(=O)[C@H](C)NC(=O)[C@H](Cc2ccc(O)cc2)NC(=O)[C@H](CC(C)C)NC(=O)CNC(=O)CN)CSSC[C@@H](C(=O)N[C@@H](CCC(N)=O)C(=O)N2CCC[C@H]2C(=O)N[C@@H](CC(C)C)C(=O)N[C@@H](CCCNC(=N)N)C(=O)NCC(N)=O)NC(=O)[C@H](C(C)C)NC(=O)[C@H](Cc2c[nH]c3ccccc23)NC(=O)[C@H]([C@@H](C)O)NC(=O)[C@H](CCSC)NC(=O)[C@@H]2CCCN2C(=O)CNC1=O [RWJ 61718] | 0.15 | 7.10 | 0.1 |
| CSCC[C@@H]1NC(=O)[C@H](CCCNC(=N)N)NC(=O)[C@@H](NC(=O)[C@H](CC(C)C)NC(=O)[C@H](Cc2ccc(O)cc2)NC(=O)[C@H](CCC(=O)O)NC(=O)CNC(=O)CN)CSSC[C@@H](C(=O)N[C@H](C(=O)N2CCC[C@H]2C(=O)N[C@H](C(=O)NCC(=O)NCC(N)=O)C(C)C)[C@@H](C)O)NC(=O)[C@H](C(C)C)NC(=O)[C@H](Cc2c[nH]c3ccccc23)NC(=O)[C@H]([C@@H](C)O)NC(=O)[C@H](CCSC)NC(=O)[C@@H]2CCCN2C(=O)CNC1=O [RWJ 61719] (HELM PEPTIDE1{G.G.E.Y.L.C.R.M.G.P.M.T.W.V.C.T.P.V.G.G.[am]}$PEPTIDE1,PEPTIDE1,6:R3-15:R3$$$V2.0) |  |  | 9 |
| CC(C)C[C@@H]1NC(=O)[C@@H]2CCCN2C(=O)CNC(=O)[C@H](Cc2ccccc2)NC(=O)[C@H](Cc2c[nH]cn2)NC(=O)[C@@H](NC(=O)[C@H](CO)NC(=O)[C@H](Cc2ccc(O)cc2)NC(=O)[C@H](CCCCN)NC(=O)[C@H](CCCNC(=N)N)NC(=O)CNC(=O)[C@@H](N)CC(C)C)CSSC[C@@H](C(=O)N[C@@H](CCC(N)=O)C(=O)N2CCC[C@H]2C(=O)N[C@@H](C)C(=O)N[C@@H](CCCCN)C(=O)N[C@@H](CCCCN)C(=O)N[C@@H](CC(=O)O)C(N)=O)NC(=O)[C@H](C(C)C)NC(=O)[C@H](Cc2c[nH]c3ccccc23)NC(=O)[C@H]([C@@H](C)O)NC1=O [RWJ 61757] (HELM PEPTIDE1{L.G.R.K.Y.S.C.H.F.G.P.L.T.W.V.C.Q.P.A.K.K.D.[am]}$PEPTIDE1,PEPTIDE1,7:R3-16:R3$$$V2.0) | 0.11 | 6.82 |  |
